Test results from ChEMBL document CHEMBL6103586, “Optimization of pyrazole/1,2,4-triazole as dual EGFR/COX-2 inhibitors: Design, synthesis, anticancer potential, apoptosis induction and cell cycle analysis” (Eur J Med Chem, 2025).

Assays:
[1] = tested on: MCF7; assay: Cytotoxicity against human MCF7 cells assessed as cell growth inhibition measured after 24 hrs by spectrophotometry based MTT assay; type: functional; details: MCF7, 24 h
[2] = tested on: HT-29; assay: Cytotoxicity against human HT-29 cells assessed as cell growth inhibition measured after 24 hrs by spectrophotometry based MTT assay; type: functional; details: HT-29, 24 h
[3] = tested on: A549; assay: Cytotoxicity against human A549 cells assessed as cell growth inhibition measured after 24 hrs by spectrophotometry based MTT assay; type: functional; details: A549, 24 h
[4] = target: Epidermal growth factor receptor (Homo sapiens, UniProt P00533); assay: Inhibition of human wild-type EGFR by Kinase-Glo assay
[5] = target: Prostaglandin G/H synthase 1 (Homo sapiens, UniProt P23219)
Description: Inhibition of COX-1 (unknown origin) using arachidonic acid as substrate by fluorescence based analysis

[6] = target: Epidermal growth factor receptor (Homo sapiens, UniProt P00533, T790M); assay: Inhibition of human EGFR T790M mutant by Kinase-Glo assay
[7] = tested on: MCF7; assay: Induction of apoptosis in human MCF7 cells assessed as early apoptotic cells at 1.207 uM incubated for 24 hrs by Annexin V-FITC/PI staining based flow cytometry analysis (reference value: 0.36%); type: functional
[8] = tested on: MCF7; assay: Induction of apoptosis in human MCF7 cells assessed as total apoptotic cells at 1.207 uM incubated for 24 hrs by Annexin V-FITC/PI staining based flow cytometry analysis (reference value: 2.51%); type: functional
[9] = tested on: MCF7; assay: Induction of cell cycle arrest in human MCF-7 cells assessed as accumulation of cells at G0/G1 phase cells at 1.207 uM incubated for 24 hrs by propidium iodide based flow cytometry analysis (reference value: 66.25%); type: functional
[10] = tested on: MCF7; assay: Induction of cell cycle arrest in human MCF-7 cells assessed as accumulation of cells at G2/M phase cells at 1.207 uM incubated for 24 hrs by propidium iodide based flow cytometry analysis (reference value: 9.87%); type: functional
[11] = tested on: MCF7; assay: Induction of apoptosis in human MCF7 cells assessed as late apoptotic cells at 1.207 uM incubated for 24 hrs by Annexin V-FITC/PI staining based flow cytometry analysis (reference value: 0.11%); type: functional
[12] = tested on: MCF7; assay: Induction of apoptosis in human MCF7 cells assessed as necrotic cells at 1.207 uM incubated for 24 hrs by Annexin V-FITC/PI staining based flow cytometry analysis (reference value: 2.04%); type: functional
[13] = tested on: MCF7; assay: Induction of cell cycle arrest in human MCF-7 cells assessed as accumulation of cells at S phase cells at 1.207 uM incubated for 24 hrs by propidium iodide based flow cytometry analysis (reference value: 23.88%); type: functional

Chain of Epidermal growth factor receptor (Homo sapiens, UniProt P00533) (P00533 whole entry): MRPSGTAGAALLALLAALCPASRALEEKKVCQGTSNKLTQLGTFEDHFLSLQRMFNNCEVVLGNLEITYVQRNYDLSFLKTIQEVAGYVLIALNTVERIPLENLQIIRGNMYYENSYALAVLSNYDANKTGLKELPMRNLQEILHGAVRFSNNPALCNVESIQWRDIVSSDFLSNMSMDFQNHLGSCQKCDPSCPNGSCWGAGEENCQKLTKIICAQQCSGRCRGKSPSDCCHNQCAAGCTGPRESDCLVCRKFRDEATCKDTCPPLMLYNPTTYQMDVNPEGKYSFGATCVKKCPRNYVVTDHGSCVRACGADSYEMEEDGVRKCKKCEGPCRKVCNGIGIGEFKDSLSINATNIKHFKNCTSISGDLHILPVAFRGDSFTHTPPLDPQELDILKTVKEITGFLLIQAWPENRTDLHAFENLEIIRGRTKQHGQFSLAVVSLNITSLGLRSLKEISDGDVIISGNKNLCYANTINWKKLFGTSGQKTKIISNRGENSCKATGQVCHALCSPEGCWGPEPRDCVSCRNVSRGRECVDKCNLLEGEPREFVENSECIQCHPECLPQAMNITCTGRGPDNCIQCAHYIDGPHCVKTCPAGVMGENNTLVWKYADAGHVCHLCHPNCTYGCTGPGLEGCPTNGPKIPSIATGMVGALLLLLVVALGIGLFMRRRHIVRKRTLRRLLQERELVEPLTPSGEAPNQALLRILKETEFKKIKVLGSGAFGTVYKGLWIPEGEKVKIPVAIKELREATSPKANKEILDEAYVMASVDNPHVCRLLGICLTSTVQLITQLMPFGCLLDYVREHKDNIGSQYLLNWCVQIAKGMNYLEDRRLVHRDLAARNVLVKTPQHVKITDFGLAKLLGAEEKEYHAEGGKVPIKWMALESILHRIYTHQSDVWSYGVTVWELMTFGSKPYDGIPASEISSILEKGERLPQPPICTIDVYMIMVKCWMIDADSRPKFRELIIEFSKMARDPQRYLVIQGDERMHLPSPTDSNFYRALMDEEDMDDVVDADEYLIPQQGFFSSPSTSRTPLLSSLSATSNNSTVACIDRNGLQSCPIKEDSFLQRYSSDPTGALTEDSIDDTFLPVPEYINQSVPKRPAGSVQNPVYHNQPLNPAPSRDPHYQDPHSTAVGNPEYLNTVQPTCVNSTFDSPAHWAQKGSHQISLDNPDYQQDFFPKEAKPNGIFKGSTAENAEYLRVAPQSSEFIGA
Chain of Epidermal growth factor receptor (Homo sapiens, UniProt P00533, T790M) (P00533 25-1210 T790M limits assumed): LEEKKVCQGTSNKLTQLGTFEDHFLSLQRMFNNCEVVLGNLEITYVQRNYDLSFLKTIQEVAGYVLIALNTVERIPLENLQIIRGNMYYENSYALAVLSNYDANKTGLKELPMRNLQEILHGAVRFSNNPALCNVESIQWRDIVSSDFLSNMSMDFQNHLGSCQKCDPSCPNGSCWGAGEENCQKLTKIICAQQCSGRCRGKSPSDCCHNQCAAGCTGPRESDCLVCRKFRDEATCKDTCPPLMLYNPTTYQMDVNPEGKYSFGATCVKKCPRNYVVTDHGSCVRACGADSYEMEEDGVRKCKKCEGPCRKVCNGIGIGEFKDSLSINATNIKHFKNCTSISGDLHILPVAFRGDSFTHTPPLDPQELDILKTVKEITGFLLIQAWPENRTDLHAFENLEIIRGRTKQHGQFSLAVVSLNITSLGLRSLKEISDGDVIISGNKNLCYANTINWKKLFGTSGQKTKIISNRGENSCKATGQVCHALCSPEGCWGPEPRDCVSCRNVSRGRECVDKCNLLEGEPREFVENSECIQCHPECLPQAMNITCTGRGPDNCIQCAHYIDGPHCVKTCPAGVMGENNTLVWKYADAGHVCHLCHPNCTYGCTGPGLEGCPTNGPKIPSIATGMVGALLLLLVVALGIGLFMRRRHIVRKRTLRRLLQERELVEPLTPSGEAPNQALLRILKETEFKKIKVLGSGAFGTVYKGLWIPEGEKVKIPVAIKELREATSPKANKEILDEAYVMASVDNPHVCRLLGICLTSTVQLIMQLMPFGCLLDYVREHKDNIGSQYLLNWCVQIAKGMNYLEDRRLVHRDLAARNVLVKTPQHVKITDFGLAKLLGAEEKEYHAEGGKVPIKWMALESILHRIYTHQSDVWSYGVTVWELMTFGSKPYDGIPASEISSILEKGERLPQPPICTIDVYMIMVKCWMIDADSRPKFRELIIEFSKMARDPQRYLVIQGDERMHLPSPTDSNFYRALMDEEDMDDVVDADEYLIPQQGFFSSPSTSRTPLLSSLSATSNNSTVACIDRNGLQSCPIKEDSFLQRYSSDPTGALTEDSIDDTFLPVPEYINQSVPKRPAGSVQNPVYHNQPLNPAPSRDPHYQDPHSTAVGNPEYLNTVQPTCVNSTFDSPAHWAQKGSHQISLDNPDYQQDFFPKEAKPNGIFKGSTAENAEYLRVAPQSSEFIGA
Chain of Prostaglandin G/H synthase 1 (P23219 whole entry): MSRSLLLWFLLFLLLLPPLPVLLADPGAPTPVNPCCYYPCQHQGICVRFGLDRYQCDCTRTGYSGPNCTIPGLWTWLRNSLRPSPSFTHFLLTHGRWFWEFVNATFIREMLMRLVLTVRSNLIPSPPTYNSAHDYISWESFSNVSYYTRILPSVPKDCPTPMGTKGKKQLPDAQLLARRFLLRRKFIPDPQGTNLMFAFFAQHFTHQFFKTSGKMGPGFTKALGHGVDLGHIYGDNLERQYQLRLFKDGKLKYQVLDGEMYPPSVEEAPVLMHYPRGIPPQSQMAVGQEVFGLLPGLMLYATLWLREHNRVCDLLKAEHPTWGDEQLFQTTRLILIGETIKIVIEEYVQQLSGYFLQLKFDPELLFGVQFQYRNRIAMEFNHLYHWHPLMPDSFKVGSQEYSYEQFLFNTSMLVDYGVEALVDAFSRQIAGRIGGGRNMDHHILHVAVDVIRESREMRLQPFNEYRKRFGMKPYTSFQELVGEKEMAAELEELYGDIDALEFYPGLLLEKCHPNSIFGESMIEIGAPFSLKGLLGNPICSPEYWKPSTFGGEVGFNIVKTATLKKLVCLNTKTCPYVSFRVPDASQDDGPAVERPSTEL

| SMILES | IC50 [1] [µM] | IC50 [2] [µM] | IC50 [3] [µM] | other results |
| --- | --- | --- | --- | --- |
| Cc1c(-c2nnc(S)n2N=Cc2ccc(F)cc2)cnn1-c1ccccc1 | 16.9 | 12 | 7.27 | – |
| COc1cc(C=Nn2c(S)nnc2-c2cnn(-c3ccc(S(C)(=O)=O)cc3)c2C)cc(OC)c1OC | 48.5 | 51.5 | 35.9 | – |
| COc1cccc(C=Nn2c(S)nnc2-c2cnn(-c3ccccc3)c2C)c1OC | 41.6 | 73.7 | 14.8 | – |
| COc1ccc(C=Nn2c(S)nnc2-c2cnn(-c3ccc(S(C)(=O)=O)cc3)c2C)cc1OC | 5.14 | 9.23 | 2.38 | IC50 [4]: 0.216 µM; IC50 [5]: 14.5 µM; IC50 [6]: 0.135 µM |
| Cc1c(-c2nnc(S)n2N=Cc2ccc([N+](=O)[O-])cc2)cnn1-c1ccccc1 | 12.8 | 10.6 | 6.38 | – |
| Cc1c(-c2nnc(S)n2N=Cc2ccc(N(C)C)cc2)cnn1-c1ccc(S(C)(=O)=O)cc1 | 10.5 | 13.9 | 31.8 | – |
| Cc1c(-c2nnc(S)n2N=Cc2ccc(F)cc2)cnn1-c1ccc(S(C)(=O)=O)cc1 | 1.2 | 5.14 | 14.8 | IC50 [4]: 0.121 µM; Activity [7]: 22.81%; Activity [8]: 38.67%; IC50 [5]: 20.1 µM; Activity [9]: 47.64%; Activity [10]: 39.15%; Activity [11]: 9.57%; Activity [12]: 6.29%; Activity [13]: 13.21%; IC50 [6]: 0.076 µM |
| COc1cccc(C=Nn2c(S)nnc2-c2cnn(-c3ccc(S(C)(=O)=O)cc3)c2C)c1OC | 22 | 28.1 | 13.5 | – |
| Cc1c(-c2nnc(S)n2N=Cc2ccc([N+](=O)[O-])cc2)cnn1-c1ccc(S(C)(=O)=O)cc1 | 4.95 | 13 | 4.89 | – |
| C=CC(=O)Nc1cc(Nc2nccc(-c3cn(C)c4ccccc34)n2)c(OC)cc1N(C)CCN(C)C [OSIMERTINIB] | 3.45 | 0.75 | 1.66 | – |
| COc1ccc(C=Nn2c(S)nnc2-c2cnn(-c3ccccc3)c2C)cc1OC | 20.2 | 13.1 | 18.6 | – |
| COc1cc(C=Nn2c(S)nnc2-c2cnn(-c3ccccc3)c2C)cc(OC)c1OC | 33.2 | 22.5 | 17.2 | – |
| Cc1c(-c2nnc(S)n2N=Cc2ccc(N(C)C)cc2)cnn1-c1ccccc1 | 7.46 | 2.93 | 3.78 | IC50 [4]: 0.423 µM; IC50 [5]: 36 µM; IC50 [6]: 0.764 µM |
| Cc1ccc(-c2cc(C(F)(F)F)nn2-c2ccc(S(N)(=O)=O)cc2)cc1 [CELECOXIB] | 16.5 | 41.5 | 21.7 | – |
